# Assay results: US6906205B2, “Spiro and dispiro 1,2,4-trioxolane antimalarials” (Medicines for Malaria Venture MMV, priority 2002, dated 2005)
# Tested on: ANKA strain of P. berghei
# Test: single dose STI in vivo screen in infected mice
# Set-up: species or system Plasmodium berghei
# Conditions: percent reduction in parasitemia day 3 post-infection; single 10 mg/kg po in 3% ethanol and 7% Tween 80; mice
# Procedure: In the single dose STI in vivo screen, Moro SPF or NMRI mice infected with the ANKA strain of P. berghei (groups of 3-5 mice) were treated on day one post-infection with trioxolanes dissolved or suspended in 3% ethanol and 7% Tween 80. […] SSV consists of 0.5% w/v CMC, 0.5% v/v benzyl alcohol, 0.4% v/v Tween 80, and 0.9% w/v sodium chloride in water. Antimalarial activity was measured by percent reduction in parasitemia on day three post-infection and survival times compared to an untreated control group. Survival to day 30 post-infection is considered to be a cure. […] Other factors influencing antimalarial activity include the stability of carbon radicals formed by β-scission subsequent to the initial electron transfer to the peroxide bond and the influence of steric effects remote from the peroxide bond on the interactions between carbon radicals and potential drug targets.
row,Compound,Activity (%) po [%]
1,O=C(C[C@H]1CC[C@]2(CC1)OOC1(O2)C2CC3CC(C2)CC1C3)N1CCN(c2ccccc2)CC1 (stereo partly drawn) [OZ244],6
2,O=C(O)CCC[C@H]1CC[C@]2(CC1)OOC1(O2)C2CC3CC(C2)CC1C3 (stereo partly drawn) [OZ261],61
3,CCOC(=O)N1C2CCC1CC1(C2)OOC2(O1)C1CC3CC(C1)CC2C3 (stereo not drawn) [OZ110],50
4,CCOC(=O)c1ccc(OC[C@H]2CC[C@]3(CC2)OOC2(O3)C3CC4CC(C3)CC2C4)cc1 (stereo partly drawn) [OZ166],11
5,CN(C)C(=O)N[C@H]1CC[C@]2(CC1)OOC1(O2)C2CC3CC(C2)CC1C3 (stereo partly drawn) [OZ187],77
6,O=C(O)c1cn(C[C@H]2CC[C@]3(CC2)OOC2(O3)C3CC4CC(C3)CC2C4)cn1 (stereo partly drawn) [OZ225],0

# Same assay, conditions: percent reduction in parasitemia day 3 post-infection; single 10 mg/kg sc in 3% ethanol and 7% Tween 80; mice
row,Compound,Activity (%) sc [%]
1,O=C(C[C@H]1CC[C@]2(CC1)OOC1(O2)C2CC3CC(C2)CC1C3)N1CCN(c2ccccc2)CC1 (stereo partly drawn) [OZ244],18
2,O=C(O)CCC[C@H]1CC[C@]2(CC1)OOC1(O2)C2CC3CC(C2)CC1C3 (stereo partly drawn) [OZ261],92
3,CCOC(=O)N1C2CCC1CC1(C2)OOC2(O1)C1CC3CC(C1)CC2C3 (stereo not drawn) [OZ110],97.97
4,CCOC(=O)c1ccc(OC[C@H]2CC[C@]3(CC2)OOC2(O3)C3CC4CC(C3)CC2C4)cc1 (stereo partly drawn) [OZ166],4
5,CN(C)C(=O)N[C@H]1CC[C@]2(CC1)OOC1(O2)C2CC3CC(C2)CC1C3 (stereo partly drawn) [OZ187],77
6,O=C(O)c1cn(C[C@H]2CC[C@]3(CC2)OOC2(O3)C3CC4CC(C3)CC2C4)cn1 (stereo partly drawn) [OZ225],17

# Same assay, conditions: percent reduction in parasitemia day 3 post-infection; single po dose in standard suspending vehicle (SSV); mice
row,Compound,Activity (%) SSVpo [%]
1,O=C(C[C@H]1CC[C@]2(CC1)OOC1(O2)C2CC3CC(C2)CC1C3)N1CCN(c2ccccc2)CC1 (stereo partly drawn) [OZ244],0
2,O=C(O)CCC[C@H]1CC[C@]2(CC1)OOC1(O2)C2CC3CC(C2)CC1C3 (stereo partly drawn) [OZ261],47
3,CCOC(=O)N1C2CCC1CC1(C2)OOC2(O1)C1CC3CC(C1)CC2C3 (stereo not drawn) [OZ110],0
4,CCOC(=O)c1ccc(OC[C@H]2CC[C@]3(CC2)OOC2(O3)C3CC4CC(C3)CC2C4)cc1 (stereo partly drawn) [OZ166],0
5,CN(C)C(=O)N[C@H]1CC[C@]2(CC1)OOC1(O2)C2CC3CC(C2)CC1C3 (stereo partly drawn) [OZ187],94
6,O=C(O)c1cn(C[C@H]2CC[C@]3(CC2)OOC2(O3)C3CC4CC(C3)CC2C4)cn1 (stereo partly drawn) [OZ225],0

# Same assay, conditions: single 10 mg/kg po in 3% ethanol and 7% Tween 80; untreated control 5.6 ± 0.3
row,Compound,Survival (days) po [days]
1,O=C(C[C@H]1CC[C@]2(CC1)OOC1(O2)C2CC3CC(C2)CC1C3)N1CCN(c2ccccc2)CC1 (stereo partly drawn) [OZ244],5.7
2,O=C(O)CCC[C@H]1CC[C@]2(CC1)OOC1(O2)C2CC3CC(C2)CC1C3 (stereo partly drawn) [OZ261],7.0
3,CCOC(=O)N1C2CCC1CC1(C2)OOC2(O1)C1CC3CC(C1)CC2C3 (stereo not drawn) [OZ110],6.7
4,CCOC(=O)c1ccc(OC[C@H]2CC[C@]3(CC2)OOC2(O3)C3CC4CC(C3)CC2C4)cc1 (stereo partly drawn) [OZ166],6.7
5,CN(C)C(=O)N[C@H]1CC[C@]2(CC1)OOC1(O2)C2CC3CC(C2)CC1C3 (stereo partly drawn) [OZ187],7.7
6,O=C(O)c1cn(C[C@H]2CC[C@]3(CC2)OOC2(O3)C3CC4CC(C3)CC2C4)cn1 (stereo partly drawn) [OZ225],5.7

# Same assay, conditions: single 10 mg/kg sc in 3% ethanol and 7% Tween 80; untreated control 5.6 ± 0.3
row,Compound,Survival (days) sc [days]
1,O=C(C[C@H]1CC[C@]2(CC1)OOC1(O2)C2CC3CC(C2)CC1C3)N1CCN(c2ccccc2)CC1 (stereo partly drawn) [OZ244],6.3
2,O=C(O)CCC[C@H]1CC[C@]2(CC1)OOC1(O2)C2CC3CC(C2)CC1C3 (stereo partly drawn) [OZ261],8.0
3,CCOC(=O)N1C2CCC1CC1(C2)OOC2(O1)C1CC3CC(C1)CC2C3 (stereo not drawn) [OZ110],7.7
4,CCOC(=O)c1ccc(OC[C@H]2CC[C@]3(CC2)OOC2(O3)C3CC4CC(C3)CC2C4)cc1 (stereo partly drawn) [OZ166],5.7
5,CN(C)C(=O)N[C@H]1CC[C@]2(CC1)OOC1(O2)C2CC3CC(C2)CC1C3 (stereo partly drawn) [OZ187],7.0
6,O=C(O)c1cn(C[C@H]2CC[C@]3(CC2)OOC2(O3)C3CC4CC(C3)CC2C4)cn1 (stereo partly drawn) [OZ225],6.3

# Same assay, conditions: single po dose in SSV; untreated control 5.6 ± 0.3
row,Compound,Survival (days) SSVpo [days]
1,O=C(C[C@H]1CC[C@]2(CC1)OOC1(O2)C2CC3CC(C2)CC1C3)N1CCN(c2ccccc2)CC1 (stereo partly drawn) [OZ244],5.3
2,O=C(O)CCC[C@H]1CC[C@]2(CC1)OOC1(O2)C2CC3CC(C2)CC1C3 (stereo partly drawn) [OZ261],7.0
3,CCOC(=O)N1C2CCC1CC1(C2)OOC2(O1)C1CC3CC(C1)CC2C3 (stereo not drawn) [OZ110],5.3
4,CCOC(=O)c1ccc(OC[C@H]2CC[C@]3(CC2)OOC2(O3)C3CC4CC(C3)CC2C4)cc1 (stereo partly drawn) [OZ166],6.3
5,CN(C)C(=O)N[C@H]1CC[C@]2(CC1)OOC1(O2)C2CC3CC(C2)CC1C3 (stereo partly drawn) [OZ187],10.0
6,O=C(O)c1cn(C[C@H]2CC[C@]3(CC2)OOC2(O3)C3CC4CC(C3)CC2C4)cn1 (stereo partly drawn) [OZ225],5.7

# Tested on: P. falciparum NF54 strain (sensitive to standard antimalarials)
# Test: semiautomated microdilution assay, [3H]-hypoxanthine incorporation, NF54 strain
# Format: cell-based, Plasmodium falciparum
# Conditions: NF54 strain, 72 h incubation
# Procedure: (§1) Various OZ compounds were tested by the semiautomated microdilution assay against intraerythrocytic forms of Plasmodium falciparum derived from asynchronous stock cultures.
# (§2) Fifty percent inhibitory concentration (IC50) were estimated by Logit regression analysis.
row,Compound,IC50 (ng/ml) NF54 [ng/mL]
1,O=C(C[C@H]1CC[C@]2(CC1)OOC1(O2)C2CC3CC(C2)CC1C3)N1CCN(c2ccccc2)CC1 (stereo partly drawn) [OZ244],4.2
2,O=C(O)CCC[C@H]1CC[C@]2(CC1)OOC1(O2)C2CC3CC(C2)CC1C3 (stereo partly drawn) [OZ261],18
3,CCOC(=O)N1C2CCC1CC1(C2)OOC2(O1)C1CC3CC(C1)CC2C3 (stereo not drawn) [OZ110],2.1
4,CCOC(=O)c1ccc(OC[C@H]2CC[C@]3(CC2)OOC2(O3)C3CC4CC(C3)CC2C4)cc1 (stereo partly drawn) [OZ166],> 10
5,CN(C)C(=O)N[C@H]1CC[C@]2(CC1)OOC1(O2)C2CC3CC(C2)CC1C3 (stereo partly drawn) [OZ187],6.8
6,O=C(O)c1cn(C[C@H]2CC[C@]3(CC2)OOC2(O3)C3CC4CC(C3)CC2C4)cn1 (stereo partly drawn) [OZ225],> 10

# Tested on: P. falciparum K1 strain (Thailand resistant to chloroquine)
# Test: semiautomated microdilution assay, [3H]-hypoxanthine incorporation, K1 strain
# Format: cell-based, Plasmodium falciparum
# Conditions: K1 strain, 72 h incubation
# Procedure: as §1, §2
row,Compound,IC50 (ng/ml) K1 [ng/mL]
1,O=C(C[C@H]1CC[C@]2(CC1)OOC1(O2)C2CC3CC(C2)CC1C3)N1CCN(c2ccccc2)CC1 (stereo partly drawn) [OZ244],4.0
2,O=C(O)CCC[C@H]1CC[C@]2(CC1)OOC1(O2)C2CC3CC(C2)CC1C3 (stereo partly drawn) [OZ261],39
3,CCOC(=O)N1C2CCC1CC1(C2)OOC2(O1)C1CC3CC(C1)CC2C3 (stereo not drawn) [OZ110],5.3
4,CCOC(=O)c1ccc(OC[C@H]2CC[C@]3(CC2)OOC2(O3)C3CC4CC(C3)CC2C4)cc1 (stereo partly drawn) [OZ166],28
5,CN(C)C(=O)N[C@H]1CC[C@]2(CC1)OOC1(O2)C2CC3CC(C2)CC1C3 (stereo partly drawn) [OZ187],4.0
6,O=C(O)c1cn(C[C@H]2CC[C@]3(CC2)OOC2(O3)C3CC4CC(C3)CC2C4)cn1 (stereo partly drawn) [OZ225],7.3
